Data: paper PMC8351955, “Targeting Mycobacterium tuberculosis response to environmental cues for the development of effective antitubercular drugs” (PLoS Biology, 2021)
Several values for one entry are separate records, joined by “and”; a condition that tells them apart may be missing. Identical values can stand only once.

Legend:
[1] = Vero cell toxicity assay (MTS); assay type: cell-based; settings: African green monkey, Vero cells
Protocol: Vero cells (African green monkey kidney epithelial cells; ATCC CCL-81) were maintained in DMEM + 10% FBS. For the cell toxicity assay, Vero cells were plated at 1 × 10^5 cells/well in a 96-well plate and incubated for 2 to 3 hours to allow cells to settle. The test compound was dissolved in DMSO at a final concentration of 12 mg/ml. The test compound solution was then added to plated cells, resulting in final test concentrations of 50 to 0.78 μg/ml, with each concentration tested at least in duplicate. To evaluate […] cell viability, 20 μl of a 1:20 MTS:PMS reagent (Promega CellTiter 96 AQueous nonradioactive cell proliferation assay kit) was added to each well after 72 hours of incubation at 37°C, and the plate then incubated for an additional 3 hours. Absorbance at 490 nm was read on a Molecular Devices SpectraMax M5 microplate reader. The CC50 (the minimal amount of compound that inhibited Vero cell growth by 50%) was extrapolated by plotting absorbance at 490 nm versus the concentration […].

[2] = Mouse plasma protein binding; assay type: in vitro ADME
Protocol: Assays examining mouse and human liver microsomal stability, kinetic aqueous solubility, mouse and human plasma protein binding and stability, and human cytochrome P450 inhibition characteristics of the compounds were run by BioDuro (San Diego, CA), using standard protocols as previously described [37]. hERG inhibition assays were also performed by BioDuro.

[3] = system: CYP3A4/5; assay: Human cytochrome P450 inhibition, 3A4/5; assay type: in vitro ADME; settings: read-out: % inhibition of CYP 3A4/5
[4] = system: macrophage phagosomal [Cl−] in BMDMs; assay: Phagosomal maturation assay, BAC/AF594 beads (Cl− readout); assay type: cell-based, mouse
Protocol: Carboxyfluorescein (pH readout), DQ-BSA/Alexa Fluor 594 (AF594) (proteolysis readout), and BAC/AF594 (Cl^− readout) beads were generated essentially as previously described, except that 10,10′-Bis[3-carboxylpropyl]-9,9′-biacridinium dinitrate di-NHS ester (BAC-SE) was purchased from emp Biotech LLC. BMDMs were isolated from C57BL/6J mice (The Jackson Laboratory) and maintained as described above. […] Assay buffer consisted of PBS (pH 7.2), supplemented with 5% FBS, 5 mM dextrose, 1 mM CaCl2, 2.7 mM KCl, and 0.5 mM MgCl2 in the case of assays with the carboxyfluorescein or DQ-BSA/AF594 beads. For assays with the BAC/AF594 beads, assay buffer consisted of PBS (pH 7.2), supplemented with 5% FBS, 5 mM dextrose, 1 mM calcium acetate, 1.35 mM K2SO4, and 0.5 mM MgSO4 [9]. Sensor beads at approximately 2 to 5 beads/macrophage in appropriate assay buffer were finally added, with data acquisition on a Biotek Synergy H1 microplate reader with bottom read signal detection started within 2 to 3 minutes of bead addition. Excitation/emission wavelengths were 450 nm/520 nm and 490 nm/520 nm for carboxyfluorescein, 490 nm/520 nm for DQ-BSA, 365 nm/505 nm for BAC, and 590 nm/617 nm for AF594. Each experiment was run with a total of 3 to 5 replicate wells/condition, with temperature maintained at 37°C throughout the assay. Wells were read every 2 minutes for 2 hours for the carboxyfluorescein bead assays, every 2 minoutes for 4 hours for the DQ-BSA/AF594 bead assays, and every 1 minute for 2 hours for the BAC/AF594 bead assays. Analyses of the results were performed as previously described.

[5] = system: Mtb growth in cholesterol media; parameters: method as in PubChem AID 1259343; settings: ref PubChem AID 1259343; cited from earlier work

CCSc1ncc(CN2CCN(c3nc4ccccc4o3)CC2)cn1 [C6, 2-(4-((2-(ethylthio)pyrimidin-5-yl)methyl)piperazin-1-yl)benzo[d]oxazole]
CC50 at 72 h [1]: > 50 µg/mL
fraction unbound [2]: 0.03
inhibition at 10 µM [3]: < 1%
Effect on increase in [Cl−] during macrophage phagosomal maturation ([4]; 10 μM, uninfected BMDMs): no significant effect
AF594/BAC fluorescence, Average ([4]; Time 0 minutes): 0.6122
AF594/BAC fluorescence, replicates ([4]; Time 0 minutes): 0.5839 and 0.6162 and 0.6235 and 0.6146 and 0.6227
AF594/BAC fluorescence, Average ([4]; Time 1 minutes): 0.5459
AF594/BAC fluorescence, replicates ([4]; Time 1 minutes): 0.5421 and 0.5573 (2×) and 0.546 and 0.5266
AF594/BAC fluorescence, Average ([4]; Time 2 minutes): 0.5408
AF594/BAC fluorescence, replicates ([4]; Time 2 minutes): 0.5319 and 0.5419 and 0.5358 and 0.5431 and 0.5513
AF594/BAC fluorescence, Average ([4]; Time 3 minutes): 0.5344
AF594/BAC fluorescence, replicates ([4]; Time 3 minutes): 0.5344 and 0.5364 and 0.543 and 0.5118 and 0.5462
AF594/BAC fluorescence, Average ([4]; Time 4 minutes): 0.5424
AF594/BAC fluorescence, replicates ([4]; Time 4 minutes): 0.5625 and 0.5432 and 0.5412 and 0.5272 and 0.538
AF594/BAC fluorescence, Average ([4]; Time 5 minutes): 0.5329
AF594/BAC fluorescence, replicates ([4]; Time 5 minutes): 0.545 and 0.5366 and 0.532 and 0.5179 and 0.5328
AF594/BAC fluorescence, Average ([4]; Time 7 minutes): 0.5364
AF594/BAC fluorescence, replicates ([4]; Time 7 minutes): 0.548 and 0.5294 and 0.5467 and 0.5183 and 0.5395
AF594/BAC fluorescence, Average ([4]; Time 9 minutes): 0.5382
AF594/BAC fluorescence, replicates ([4]; Time 9 minutes): 0.5413 and 0.5472 and 0.5302 and 0.5353 and 0.5369
AF594/BAC fluorescence, Average ([4]; Time 11 minutes): 0.548
AF594/BAC fluorescence, replicates ([4]; Time 11 minutes): 0.555 and 0.5414 and 0.5741 and 0.5202 and 0.5492
AF594/BAC fluorescence, Average ([4]; Time 13 minutes): 0.5691
AF594/BAC fluorescence, replicates ([4]; Time 13 minutes): 0.5666 and 0.5688 and 0.5877 and 0.5543 and 0.5682
AF594/BAC fluorescence, Average ([4]; Time 15 minutes): 0.5821
AF594/BAC fluorescence, replicates ([4]; Time 15 minutes): 0.5799 and 0.5786 and 0.5955 and 0.5676 and 0.5889
AF594/BAC fluorescence, Average ([4]; Time 17 minutes): 0.5935
AF594/BAC fluorescence, replicates ([4]; Time 17 minutes): 0.5853 and 0.6046 and 0.6099 and 0.5629 and 0.6045
AF594/BAC fluorescence, Average ([4]; Time 19 minutes): 0.603
AF594/BAC fluorescence, replicates ([4]; Time 19 minutes): 0.5752 and 0.6161 and 0.6348 and 0.5964
AF594/BAC fluorescence, Average ([4]; Time 21 minutes): 0.6193
AF594/BAC fluorescence, Average ([4]; Time 23 minutes): 0.618
AF594/BAC fluorescence, Average ([4]; Time 25 minutes): 0.6229
AF594/BAC fluorescence, Average ([4]; Time 27 minutes): 0.6239
AF594/BAC fluorescence, Average ([4]; Time 29 minutes): 0.6453
AF594/BAC fluorescence, Average ([4]; Time 31 minutes): 0.6313
AF594/BAC fluorescence, Average ([4]; Time 33 minutes): 0.6482
AF594/BAC fluorescence, Average ([4]; Time 35 minutes): 0.6392
AF594/BAC fluorescence, Average ([4]; Time 37 minutes): 0.6481
AF594/BAC fluorescence, Average ([4]; Time 39 minutes): 0.6418
AF594/BAC fluorescence, Average ([4]; Time 41 minutes): 0.6532
AF594/BAC fluorescence, Average ([4]; Time 43 minutes): 0.6524
AF594/BAC fluorescence, Average ([4]; Time 45 minutes): 0.6458
AF594/BAC fluorescence, Average ([4]; Time 46 minutes): 0.6438
AF594/BAC fluorescence, Average ([4]; Time 47 minutes): 0.6518
AF594/BAC fluorescence, Average ([4]; Time 48 minutes): 0.6423
AF594/BAC fluorescence, Average ([4]; Time 49 minutes): 0.6502
AF594/BAC fluorescence, Average ([4]; Time 50 minutes): 0.6427
AF594/BAC fluorescence, Average ([4]; Time 51 minutes): 0.6412
AF594/BAC fluorescence, Average ([4]; Time 52 minutes): 0.6437
AF594/BAC fluorescence, Average ([4]; Time 53 minutes): 0.6415
AF594/BAC fluorescence, Average ([4]; Time 54 minutes): 0.6535
AF594/BAC fluorescence, Average ([4]; Time 55 minutes): 0.646
AF594/BAC fluorescence, Average ([4]; Time 56 minutes): 0.6496
AF594/BAC fluorescence, Average ([4]; Time 57 minutes): 0.6559
AF594/BAC fluorescence, Average ([4]; Time 58 minutes): 0.6523
AF594/BAC fluorescence, Average ([4]; Time 59 minutes): 0.6473
AF594/BAC fluorescence, Average ([4]; Time 60 minutes): 0.6412
AF594/BAC fluorescence, Average ([4]; Time 61 minutes): 0.6401
AF594/BAC fluorescence, Average ([4]; Time 62 minutes): 0.6424
AF594/BAC fluorescence, Average ([4]; Time 63 minutes): 0.6429
AF594/BAC fluorescence, Average ([4]; Time 64 minutes): 0.6497
AF594/BAC fluorescence, Average ([4]; Time 65 minutes): 0.6542
AF594/BAC fluorescence, Average ([4]; Time 66 minutes): 0.6415
AF594/BAC fluorescence, Average ([4]; Time 67 minutes): 0.656
AF594/BAC fluorescence, Average ([4]; time 6 minutes): 0.5344
AF594/BAC fluorescence, replicates ([4]; time 6 minutes): 0.55 and 0.5263 and 0.5408 and 0.5119 and 0.5432
AF594/BAC fluorescence, Average ([4]; time 8 minutes): 0.5381
AF594/BAC fluorescence, replicates ([4]; time 8 minutes): 0.5319 and 0.5466 and 0.5386 and 0.538 and 0.5353
AF594/BAC fluorescence, Average ([4]; time 10 minutes): 0.5471
AF594/BAC fluorescence, replicates ([4]; time 10 minutes): 0.5453 and 0.5491 and 0.5758 and 0.5298 and 0.5354
AF594/BAC fluorescence, Average ([4]; time 12 minutes): 0.5563
AF594/BAC fluorescence, replicates ([4]; time 12 minutes): 0.5501 and 0.57 and 0.5742 and 0.5198 and 0.5673
AF594/BAC fluorescence, Average ([4]; time 14 minutes): 0.5706
AF594/BAC fluorescence, replicates ([4]; time 14 minutes): 0.5628 and 0.5864 and 0.5841 and 0.542 and 0.5776
AF594/BAC fluorescence, Average ([4]; time 16 minutes): 0.5854
AF594/BAC fluorescence, replicates ([4]; time 16 minutes): 0.5806 and 0.5704 and 0.6264 and 0.5665 and 0.5832
AF594/BAC fluorescence, Average ([4]; time 18 minutes): 0.5961
AF594/BAC fluorescence, replicates ([4]; time 18 minutes): 0.5808 and 0.5961 and 0.6277 and 0.5767 and 0.5992
AF594/BAC fluorescence, Average ([4]; time 20 minutes): 0.6147
AF594/BAC fluorescence, replicates ([4]; time 20 minutes): 0.6043
AF594/BAC fluorescence, Average ([4]; time 22 minutes): 0.6194
AF594/BAC fluorescence, Average ([4]; time 24 minutes): 0.6332
AF594/BAC fluorescence, Average ([4]; time 26 minutes): 0.631
AF594/BAC fluorescence, Average ([4]; time 28 minutes): 0.638
AF594/BAC fluorescence, Average ([4]; time 30 minutes): 0.6338
AF594/BAC fluorescence, Average ([4]; time 32 minutes): 0.6382
AF594/BAC fluorescence, Average ([4]; time 34 minutes): 0.6489
AF594/BAC fluorescence, Average ([4]; time 36 minutes): 0.6508
AF594/BAC fluorescence, Average ([4]; time 38 minutes): 0.652
AF594/BAC fluorescence, Average ([4]; time 40 minutes): 0.6508
AF594/BAC fluorescence, Average ([4]; time 42 minutes): 0.6499
AF594/BAC fluorescence, Average ([4]; time 44 minutes): 0.6458
Call in screen for inhibition of Mtb growth in cholesterol media [5]: positive for growth inhibition
